Measurements reported in patent US11753445B2, “Therapeutic peptides” (COHBAR, INC., priority 2016, dated 2023).
Peptide text beside a SMILES is read from it.

What was measured:
[1] = Stability in mouse plasma, peptides 100 uM (Example 14); type: in vitro ADME; conditions: mouse plasma 37° C., peptide 100 uM; for remaining at 0.25 h, 100 uM / remaining at 0.5 h, 100 uM / remaining at 1 h, 100 uM / remaining at 2 h, 100 uM / remaining at 3 h, 100 uM: pooled mouse plasma; for remaining at 0.25 h, 100 uM: 15 min, read-out: % Remaining at Each Time Point: 15 min; for remaining at 0.5 h, 100 uM: 30 min, read-out: % Remaining at Each Time Point: 30 min; for remaining at 1 h, 100 uM: 60 min, read-out: % Remaining at Each Time Point: 60 min; for remaining at 2 h, 100 uM: 120 min, read-out: % Remaining at Each Time Point: 120 min; for remaining at 3 h, 100 uM: 180 min, read-out: % Remaining at Each Time Point: 180 min
Procedure: (§1) Peptides (100 uM) were incubated in pooled mouse plasma at 37° C. and samples were removed and immediately analyzed for the concentration of intact peptide by LC/MS/MS over the course of 3 hours. The percent of peptide remaining in plasma at each time point was calculated relative to the initial peak area (Table 12).

Human Primary Adipocytes = assay: Free fatty acid levels in cultured human primary adipocytes, forskolin stimulated (Example 5); type: cell-based; conditions: test peptides 25 μM; forskolin 1 μM
Procedure: Human primary adipocytes were seeded at 5,000-100,000 cells per well on 96-well, 48-well, or 24-well plate in Pre-adipocyte Medium (Zen-Bio, Durham, N.C.) and grown to confluence at 37° C. in a humidified atmosphere of 5% CO2/95% air. Two days after confluence, cells were placed in Adipocyte Differentiation Medium (Zen-Bio, Durham, N.C.) and cultured for three additional days at 37° C. in a humidified atmosphere of 5% CO2/95% air. The culture media was then replaced with Adipocyte Maintenance Medium (Zen-Bio) and the cells were maintained for an additional 11-21 days at 37° C. in a humidified atmosphere of 5% CO2/95% air with partial medium replacement every other day. Following 14-24 days of differentiation, test peptides were added at a final concentration of 25 μM and incubated for 18-20 hours in Adipocyte Maintenance Medium at 37° C. in a humidified atmosphere of 5% CO2/95%. After 18-20 hours, the media was exchanged with fresh Adipocyte Maintenance Medium containing test peptides and incubated for 1 h at 37° C. in a humidified atmosphere of 5% CO2/95%. After 1 h media was exchanged with Assay Buffer (Zen-Bio) containing forskolin (1 μM) (added to all samples except untreated controls) and test peptides. Cells were incubated for a further 3 hours at 37° C. in a humidified atmosphere of 5% CO2/95%. Free fatty acid concentrations in the media were determined using a Free Fatty Acid Assay Kit (Zen-Bio) according to the manufacturer's instructions using a plate reader (540 nm). Absorbance values were corrected for untreated background and expressed relative to forskolin treated cells. Treatment with forskolin (1 μM) alone was used as the free fatty acid level stimulatory control. The relative standard deviation of the forskolin control was <20%. […] Free fatty acid levels for insulin (100 nM) treatment were <8% of the forskolin control value.

[2] = test system: Diet Induced Obese (DIO) mice; assay: Body weight, blood glucose and fat mass in Diet Induced Obese mice, 10 days (Example 6); type: in vivo, Male C57BL/6 mice; conditions: male DIO mice; 10 days twice daily intraperitoneal 15 mg/kg; N = 8; mean
Procedure: Animals were randomized to treatment groups based on blood glucose levels and body weight. The peptides of the invention were administered to two groups of male DIG mice once or twice daily by subcutaneous or intraperitoneal injection at a dose of 15 mg/kg/dose for 10 days (N=8 animals per treatment group). An additional group of male DIG mice (n=8) received vehicle (water or saline) alone. Body weight, blood glucose levels and food intake were monitored. Body mass distribution (fat vs lean) was determined by quantitative whole body NMR prior to dosing and at the end of dosing.

3T3-L1 Adipocytes = assay: Free fatty acid levels in cultured mouse 3T3-L1 adipocytes, isoproterenol stimulated (Example 2); type: cell-based; conditions: test peptides 25 μM; isoproterenol 1 nM
How it was run: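 Release of free fatty acids, read at 540 nm, was stimulated with 1 nM isoproterenol for 3 h in mouse 3T3-L1 adipocytes (12–17 days of differentiation). Cells were pre-exposed to 25 μM peptide for 18–20 h plus 1 h, with peptide kept in during stimulation. Values are background-subtracted and normalised to isoproterenol alone.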

[3] = Stability in mouse plasma, peptides 10 uM (Example 15); type: in vitro ADME; conditions: mouse plasma 37° C., peptide 10 uM; for remaining at 0.25 h, 10 uM / remaining at 0.5 h, 10 uM / remaining at 1 h, 10 uM / remaining at 2 h, 10 uM / remaining at 3 h, 10 uM: pooled mouse plasma; for remaining at 0.25 h, 10 uM: 15 min, read-out: % Remaining at Each Time Point: 15 min; for remaining at 0.5 h, 10 uM: 30 min, read-out: % Remaining at Each Time Point: 30 min; for remaining at 1 h, 10 uM: 60 min, read-out: % Remaining at Each Time Point: 60 min; for remaining at 2 h, 10 uM: 120 min, read-out: % Remaining at Each Time Point: 120 min; for remaining at 3 h, 10 uM: 180 min, read-out: % Remaining at Each Time Point: 180 min
Procedure: as §1, with “(10” for “(100”, “13).” for “12).”

Row | Molecule | % Remaining at Each Time Point: 0 min [1] | remaining at 0.25 h, 100 uM [1] | remaining at 0.5 h, 100 uM [1] | remaining at 1 h, 100 uM [1] | remaining at 2 h, 100 uM [1] | remaining at 3 h, 100 uM [1] | % Remaining at Each Time Point: 0 min [3] | remaining at 0.25 h, 10 uM [3] | remaining at 0.5 h, 10 uM [3] | remaining at 1 h, 10 uM [3] | remaining at 2 h, 10 uM [3] | remaining at 3 h, 10 uM [3] | Free Fatty Acid Levels in Human Primary Adipocytes Expressed as a Percent of Forskolin Control: Percent of Control Value (Human Primary Adipocytes) | Difference from Vehicle Control: Decrease from Baseline in Blood Glucose [2] | Difference from Vehicle Control: Decrease from Baseline in Body Weight (%) [2] | Difference from Vehicle Control: Decrease from Baseline in Fat Mass [2] | Free Fatty Acid Levels in 3T3-L1 Adipocytes Expressed as a Percent of Isoproterenol Control: Percent of Control Value (3T3-L1 Adipocytes)
1 | H-MRWQEMGYIFYPAKLR-OH [compound 18] | 100% | 30.8% | 24% | 19.4% | 9.02% | 4.53% |  |  |  |  |  |  | 101% | 1.52 mg/dL | −0.80% | -0.65 g | 
2 | Ac-MRWQEMGYIFYPR-NH2 [compound 61] | 100% | 69.1% | 65.8% | 59.1% | 43.3% | 29.1% |  |  |  |  |  |  |  |  |  |  | 92.9%
3 | H-MRWQEAGYIFYPRKLR-OH [compound 11] | 100% | 18.3% | 17.5% | 11.5% | 5.25% | 2.38% |  |  |  |  |  |  |  | -27.6 mg/dL | −8.81% | -5.85 g | 78.8%
4 | H-ERWQEAGYIAYPR-OH [compound 241] |  |  |  |  |  |  | 100% | 98.8% | 96.8% | 89.5% | 84.3% | 80.7% |  | -7.00 mg/dL | −1.49% | -0.34 g | 50.9%
5 | H-MRWQEMGYIAYPRKLR-OH [compound 15] | 100% | 19.5% | 18.8% | 21.8% | 6.63% | 0% |  |  |  |  |  |  |  |  |  |  | 67.9%

Continued, in another order:

Row | % Remaining at Each Time Point: 0 min [1] | remaining at 0.25 h, 100 uM [1] | remaining at 0.5 h, 100 uM [1] | remaining at 1 h, 100 uM [1] | remaining at 2 h, 100 uM [1] | remaining at 3 h, 100 uM [1] | % Remaining at Each Time Point: 0 min [3] | remaining at 0.25 h, 10 uM [3] | remaining at 0.5 h, 10 uM [3] | remaining at 1 h, 10 uM [3] | remaining at 2 h, 10 uM [3] | remaining at 3 h, 10 uM [3] | Molecule | Free Fatty Acid Levels in Human Primary Adipocytes Expressed as a Percent of Forskolin Control: Percent of Control Value (Human Primary Adipocytes) | Difference from Vehicle Control: Decrease from Baseline in Blood Glucose [2] | Difference from Vehicle Control: Decrease from Baseline in Body Weight (%) [2] | Difference from Vehicle Control: Decrease from Baseline in Fat Mass [2] | Free Fatty Acid Levels in 3T3-L1 Adipocytes Expressed as a Percent of Isoproterenol Control: Percent of Control Value (3T3-L1 Adipocytes)
6 | 100% | 18.8% | 18.2% | 8.52% | 1.82% | 0.22% |  |  |  |  |  |  | H-MRWQEMGYIFYPRALR-OH [compound 19] | 113% | -14.5 mg/dL | −3.27% | -2.34 g | 66.0%
7 |  |  |  |  |  |  | 100% | 70.6% | 47.5% | 44.4% | 38.1% | 30.2% | H-RWQEMNYIAEPR-OH [compound 251] |  | -34.3 mg/dL | −0.55% | 0.02 g | 83.7%
8 |  |  |  |  |  |  | 100% | 46% | 26.8% | 11.9% | 11.3% | 7.35% | H-MRWQEMGYIFYARKLR-OH [compound 17] |  | -2.63 mg/dL | −2.87% | -0.65 g | 
9 |  |  |  |  |  |  | 100% | 59.4% | 33.6% | 6.43% | 0.44% | 0% | H-MRWQEEGYIFYPRKLR-OH [compound 172] |  | -31.5 mg/dL | −2.48% | -0.77 g | 54.2%
10 |  |  |  |  |  |  | 100% | 59.3% | 36.1% | 11.1% | 0.98% | 0.28% | CC[C@H](C)[C@H](NC(=O)[C@H](Cc1ccc(O)cc1)NC(=O)CNC(=O)[C@H](CCSC)NC(=O)[C@H](CCC(=O)O)NC(=O)[C@H](CCC(N)=O)NC(=O)[C@H](Cc1c[nH]c2ccccc12)NC(=O)[C@H](CCCNC(=N)N)NC(=O)[C@@H](N)CCSC)C(=O)N[C@@H](Cc1ccccc1)C(=O)N[C@@H](Cc1ccc(O)cc1)C(=O)N1CCC[C@H]1C(=O)N[C@@H](CCCNC(=N)N)C(=O)N[C@H](C)C(=O)N[C@@H](CC(C)C)C(=O)N[C@@H](CCCNC(=N)N)C(=O)O [compound 149] (HELM PEPTIDE1{M.R.W.Q.E.M.G.Y.I.F.Y.P.R.[dA].L.R}$$$$V2.0) |  | -11.4 mg/dL | −5.22% | -2.13 g | 38.6%
